One molecule from patent US20240197761A1, “FUCOSYLATION AND IMMUNE MODULATION IN CANCER” (H. LEE MOFFITT CANCER CENTER AND RESEARCH INSTITUTE, INC., priority 2021, published 2024) can be followed below.

SMILES strings stand for the structures.

For assay [1], the system named is SW1 tumors (shNT, shH2K1, shEB1, EB1 WT or N46G). In words: H2K1/EB1 knockdown and glyco-fucomutant EB1 reconstitution mouse model. Format: in vivo, C3H/HeN mice. An excerpt: All animals were housed at the Vincent A. Stabile Research building animal facility at H. Lee Moffitt Cancer Center & Research Institute, which is fully accredited by the Association for Assessment and Accreditation of Laboratory Animal Care International (AAALAC, #434), and are managed in accordance with the Guide for the Care and Use of Laboratory Animals (“The Guide”), the Animal Welfare Regulations Title 9 Code of Federal Regulations Subchapter A, “Animal Welfare”, Parts 1-3 (AWR), the Public Health Service Policy on Humane Care and Use of Laboratory Animals (PHS Policy), and by the USF Institutional Animal Care and Use Committee's Principles and Procedures of Animal Care and Use (IACUC Principles). The experiments and protocols detailed in this study received institutional approval by the Moffitt IACUC (RIS00001625). Four-to-six-week-old female C3H/HeN and male C57BL6 mice were purchased from Charles Rivers Laboratories for the indicated experiments. Four-to-six-week-old male NSG mice from the Lau laboratory breeding colony were used for the indicated experiments. Power calculations were used to determine mouse cohort sizes to detect significant changes in tumor sizes. In general, 10 mice per indicated cohort to accommodate for incidental loss of mice due to issues beyond our control (e.g., incidental tumor ulceration that required exclusion from the study). Mouse tumor volumes were measured using length, width and depth divided by 2. At each experimental endpoint, mice were humanely euthanized using CO2 inhalation in accordance to the American Veterinary Medical Association guidelines. […] For all mouse models, 1×10^6 melanoma cells were injected subcutaneously in the right hind flanks of each mouse. Between 7-14 days, when the tumor volumes reached ˜150 mm^3, the mice were either supplemented with or without 100 mM L-fucose (Biosynth (Oak Terrace, IL)) via drinking water, which was provided ad libitum. When the tumors reached ˜2 cm^3, the animals were sacrificed, and the tumors either processed for flow cytometric profiling or for histological analysis as indicated. […]

The subject of assay [2] is PD-L1 on WM793, SW1 and SM1 cells. As to the kind of experiment: Cell surface PD-L1 (flow cytometry). The note with it: human or mouse melanoma cells, 250 μM. Format: cell-based. An excerpt:
FIGS. 22A-221 show Schematic of L-PLA staining and verification of fucosylated HLA-DRB1 staining, which is weakly associated with tumor peripheral CD4+T cells; and the effects of L-fucose on tumor PD-L1 expression (a) Schematic of lectin-mediated proximity ligation analysis (L-PLA) using fucosylated HLA-DRB1 (fuco-HLA-DRB1) as an example. We stained for (i) HLA-DRB1 using […]-HLA-DRB1 followed by (+) oligo-conjugated PLA secondary and (ii) fucosylated glycan using biotinylated (“B”) AAL lectin followed by D-biotin followed by (−) oligo-conjugated PLA secondary. Ligated PLA oligos were subjected to rolling circle amplification PCR (RCA PCR), giving rise to fluorescent punctae. […] Single melanoma marker, AAL-FITC, and HLA-DRB1 channels are shown in white for clearer visualization. […] (d) FFPE melanoma tissues were subjected to L-PLA HLA-DRB1 staining ±500 mM L-fucose wash and subsequent staining with melanoma marker (MART1+SI10 cocktail), and DAPI. Single melanoma marker and fuco-HLA-DRB1 channels are shown in white for clear visualization. […]
HLA-DRB1, and PD-L1: Indicated cells were treated for 72 h with DMSO, 250 μM fucosyltransferase inhibitor (FUTi) (Millipore Sigma (St. Louis, MO)), or 250 μM of L-fucose (Biosynth (Oak Terrace, IL)). […] Samples were analyzed using FlowJo analysis software (BD Biosciences (San Jose, CA)). […]
In general terms: In flow cytometry, cells or beads pass a laser one at a time.

Regarding `C[C@H](O)[C@@H](O)[C@@H](O)[C@H](O)C=O` [L-fucose], the “L-fuc-triggered tumor suppression and induction of total itICs” value in assay [1] (EB1 knockdown) was “completely abolished”. Besides, the “control (shNT) tumor growth” value in assay [1] (non-targeting shRNA SW1 tumors) is reported as “impaired”. Besides, the “L-fuc-induced TIL and tumor growth suppression after EB1 knockdown and reconstitution” value in assay [1] (shEB1 tumors reconstituted with EB1 WT or N46G) is given as “rescued by reconstitution with only WT but not glyco-fucomutant EB1”. Also, the “cell surface levels of PD-L1” value in assay [2] was “does not alter”.
